What is called EC50 is the concentration that produces a half-maximal response.

The target in one assay is T1, hTLR7 (Homo sapiens, UniProt Q9NYK1).
T1 construct: host or cells: HEK-Blue hTLR7 (HEK293-derived reporter line)
T1 sequence (Q9NYK1 27-1049): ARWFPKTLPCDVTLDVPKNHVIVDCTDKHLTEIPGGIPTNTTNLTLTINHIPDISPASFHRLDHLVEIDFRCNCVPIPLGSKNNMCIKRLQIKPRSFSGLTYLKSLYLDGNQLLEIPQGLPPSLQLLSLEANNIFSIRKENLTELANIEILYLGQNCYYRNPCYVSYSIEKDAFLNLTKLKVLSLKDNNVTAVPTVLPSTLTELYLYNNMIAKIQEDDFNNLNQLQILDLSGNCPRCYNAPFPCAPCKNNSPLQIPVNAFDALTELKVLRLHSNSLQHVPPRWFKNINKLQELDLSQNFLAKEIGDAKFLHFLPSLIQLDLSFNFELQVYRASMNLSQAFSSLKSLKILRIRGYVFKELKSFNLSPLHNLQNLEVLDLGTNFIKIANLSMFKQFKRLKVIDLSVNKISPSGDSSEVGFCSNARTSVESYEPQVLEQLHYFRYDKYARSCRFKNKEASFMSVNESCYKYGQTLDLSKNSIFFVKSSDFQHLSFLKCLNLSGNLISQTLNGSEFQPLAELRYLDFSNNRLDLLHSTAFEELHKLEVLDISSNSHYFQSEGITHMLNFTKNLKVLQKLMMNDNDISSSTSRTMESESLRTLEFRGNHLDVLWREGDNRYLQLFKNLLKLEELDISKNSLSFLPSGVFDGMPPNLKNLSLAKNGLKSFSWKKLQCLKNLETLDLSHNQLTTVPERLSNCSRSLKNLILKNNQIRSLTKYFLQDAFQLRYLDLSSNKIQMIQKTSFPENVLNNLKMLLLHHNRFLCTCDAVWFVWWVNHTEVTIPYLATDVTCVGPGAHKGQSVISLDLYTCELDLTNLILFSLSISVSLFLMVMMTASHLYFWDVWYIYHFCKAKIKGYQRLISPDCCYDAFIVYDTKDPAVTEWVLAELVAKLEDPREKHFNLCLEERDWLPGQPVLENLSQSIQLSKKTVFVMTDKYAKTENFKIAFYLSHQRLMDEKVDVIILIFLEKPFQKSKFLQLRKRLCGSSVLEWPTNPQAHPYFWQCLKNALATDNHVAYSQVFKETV
Put plainly: Activation activity test of hTLR7 (HEK-Blue hTLR7 cells, QUANTI-Blue OD650). As to conditions: 24 hours incubation, read-out: TLR7 (EC50). Type of assay: cell-based. How it is done: (§1) Effect Example 1: Activation Activity Test of hTLR7 and hTLR8
(§2) Cell lines: HEK-Blue™ hTLR7 and HEK-Blue™ hTLR8 (InvivoGen Co.)
(§3) Primary reagents: QUANTI-Blue™ (InvivoGen) and ATPlite 1 Step (PerkinElmer)
(§4) Primary instruments: Automatic Liquid Handling Workstation (Labcyte, Model: Echo), Cell Counter (Countstar, IC1000) and Multifunctional Enzyme Marker (Molecular Device, Flexstation III).
(§5) 2.1 The tested compounds were formulated into a 60 mM concentrated stock solution in DMSO and stored in a nitrogen cabinet.
(§6) 2.3 The T150 cultured cells were taken out from the CO2 incubator and the cell culture supernatant was discarded. The cells were washed with PBS once, followed by addition of about 10 mL of the culture solution. The cells were dissociated by patting the cell culture flask, and gently blown to even by a pipette.
(§7) The cells were counted, and the cell suspension was adjusted to 200,000 cells/mL by the culture solution. Thereafter, 200 μL of diluted cells was added to each well in a 96-well plate containing the compound (40,000 cells/well).
(§8) 2.4 The compounds and cells were incubated in a 5% CO2 incubator at 37° C. for 24 hours.
(§9) 2.5 Compound activity assay: 20 μl of the cell supernatant of each well after induction was added to a cell culture plate containing 180 μL of reagent QUANTI-Blue™, and incubated at 37° C. for 1.5 hours. Thereafter, the optical density absorption (OD650) of each well at 650 nm was measured using a Multifunctional Enzyme Marker: Flexstation III.
(§10) 2.6 Compound Activity: OD650 values were analyzed using GraphPad Prism software and the dose-response curves for the compound were fitted to calculate the EC50 values of the compound.

For another assay, the target named is T2, hTLR8 (Homo sapiens, UniProt Q9NR97).
T2 construct: host or cells: HEK-Blue hTLR8 (HEK293-derived reporter line)
T2 sequence (Q9NR97 27-1041): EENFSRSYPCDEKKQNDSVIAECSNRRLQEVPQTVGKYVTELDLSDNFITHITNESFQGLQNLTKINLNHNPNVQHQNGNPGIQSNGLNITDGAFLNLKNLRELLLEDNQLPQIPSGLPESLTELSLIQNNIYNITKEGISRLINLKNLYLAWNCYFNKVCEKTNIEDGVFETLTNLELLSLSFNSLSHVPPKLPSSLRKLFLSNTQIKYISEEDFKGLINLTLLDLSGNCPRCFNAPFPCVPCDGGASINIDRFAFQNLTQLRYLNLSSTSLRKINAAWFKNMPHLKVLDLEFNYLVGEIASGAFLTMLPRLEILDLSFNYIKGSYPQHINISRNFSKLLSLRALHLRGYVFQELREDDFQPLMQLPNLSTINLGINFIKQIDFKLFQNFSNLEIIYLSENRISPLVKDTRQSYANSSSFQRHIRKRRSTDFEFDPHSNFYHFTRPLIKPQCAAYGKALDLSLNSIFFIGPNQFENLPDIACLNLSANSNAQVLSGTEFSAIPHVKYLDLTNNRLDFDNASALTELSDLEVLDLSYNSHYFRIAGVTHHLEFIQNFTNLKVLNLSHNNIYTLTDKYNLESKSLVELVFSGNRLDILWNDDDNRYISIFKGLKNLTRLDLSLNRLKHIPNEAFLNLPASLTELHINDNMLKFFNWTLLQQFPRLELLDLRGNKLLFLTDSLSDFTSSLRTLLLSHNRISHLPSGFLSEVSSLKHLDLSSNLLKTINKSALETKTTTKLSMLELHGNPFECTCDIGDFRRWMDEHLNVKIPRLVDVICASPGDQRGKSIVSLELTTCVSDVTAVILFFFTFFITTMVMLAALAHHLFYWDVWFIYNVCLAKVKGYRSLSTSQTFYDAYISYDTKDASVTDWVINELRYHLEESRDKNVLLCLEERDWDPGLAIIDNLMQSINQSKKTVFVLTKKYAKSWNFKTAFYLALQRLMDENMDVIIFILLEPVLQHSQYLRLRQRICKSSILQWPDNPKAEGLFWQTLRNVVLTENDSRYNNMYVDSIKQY
The experiment in a line: Activation activity test of hTLR8 (HEK-Blue hTLR8 cells, QUANTI-Blue OD650). Type of assay: cell-based. Conditions: HEK-Blue hTLR8 cells, 24 hours incubation; read-out: TLR8 (EC50). How it is done:
as §1, §2, §3, §4, §5, §6, §7, §8, §9, §10

As for `COCCOc1ncc2[nH]c(=O)n(Cc3ccc(CN4CC[C@@H](O)C4)cc3)c2n1` [Example 6, (R)-9-(4-((3-hydroxypyrrolidin-1-yl)methyl)benzyl)-2-(2-methoxyethoxy)-7,9-dihydro-8H-purin-8-one], the values for the 50% effective concentration (EC50) on hTLR7 and at hTLR8 were 10 to 100 µM and > 100 µM, respectively.
As for `COCCOc1ncc2nc(C)n(Cc3ccc(CN4CCCC4)cc3)c2n1` [Example 59, 2-(2-methoxyethoxy)-8-methyl-9-(4-(pyrrolidin-1-ylmethyl)benzyl)-9H-purine], the EC50 on hTLR7 and on hTLR8 was > 100 µM throughout.
`COCCOc1ncc2[nH]c(=O)n(CCc3ccc(CN4CCCC4)cc3)c2n1` [Example 67, 9-(4-(pyrrolidin-1-ylmethyl)phenethyl)-2-(2-methoxyethoxy)-7,9-dihydro-8H-purin-8-one]: the EC50 at hTLR7 and on hTLR8 was > 100 µM throughout.
As for `O=c1[nH]c2cnc(OCCO)nc2n1Cc1ccc(CN2CCCC2)cc1` [Example 38, 2-(2-hydroxyethoxy)-9-(4-(pyrrolidin-1-ylmethyl)benzyl)-7,9-dihydro-8H-purin-8-one], the EC50 at hTLR7 is 10 to 100 µM; on hTLR8, > 100 µM.
The like results for `COCCOc1cc2c(cn1)[nH]c(=O)n2Cc1ccc(CN2CCCC2)cc1` [Example 39, 6-(2-methoxyethoxy)-1-(4-(pyrrolidin-1-ylmethyl)benzyl)-1,3-dihydro-2H-imidazole-[4,5-c]pyridin-2-one] were, in that order, 10 to 100 µM and > 100 µM.
For `COCCOc1ncc2[nH]c(=O)n(Cc3cccc(CN4CCC[C@@H]4C(=O)OC)c3)c2n1` [Example 23, methyl (3-((2-(2-methoxyethoxy)-8-oxo-7,8-dihydro-9H-purin-9-yl)methyl)benzyl)-D-pyrrolidine-2-carboxylate], the EC50 is 10 to 100 µM at hTLR7 and > 100 µM at hTLR8.
Taken in the same sequence, the figures for `CCCCOc1ncc2[nH]c(=O)n(Cc3ccc(CN4CCCC4)cc3)c2n1` [Example 66, 9-(4-(pyrrolidin-1-ylmethyl)benzyl)-2-butoxy-7,9-dihydro-8H-purin-8-one] were > 100 µM and > 100 µM.
With `CCCCNc1ncc2[nH]c(=O)n(Cc3cccc(CN4CCCC4)c3)c2n1` [Example 31, 2-(butylamino)-9-(3-(pyrrolidin-1-ylmethyl)benzyl)-7,9-dihydro-8H-purin-8-one], the EC50 on hTLR7 and on hTLR8 was > 100 µM in each case.
Regarding `COCCOc1ncc2[nH]c(=O)n(Cc3ccc(C(C)N4CCCCCC4)cc3)c2n1` (centres unmarked) [Example 16, 2-(2-methoxyethoxy)-9-(4-(1-(azacycloheptane-1-yl)ethyl)benzyl)-7,9-dihydro-8H-purin-8-one], the figures for the EC50 at hTLR7 and on hTLR8 were 0.001 to 1 µM and > 100 µM, respectively.
As to `CC(C)OCCOc1ncc2[nH]c(=O)n(Cc3ccc(CN4CCCC4)cc3)c2n1` [Example 64, 9-(4-(pyrrolidin-1-ylmethyl)benzyl)-2-(2-isopropoxyethoxy)-7,9-dihydro-8H-purin-8-one], the EC50 at hTLR7 was 1 to 10 µM; on hTLR8 it was > 100 µM.
Taken in the same sequence, the figures for `O=c1[nH]c2cnc(OCCOC(F)(F)F)nc2n1Cc1ccc(CN2CC=CC2)cc1` [Example 55] were 0.001 to 1 µM and > 100 µM.
The like results for `O=c1[nH]c2cnc(OCCOC(F)(F)F)nc2n1Cc1ccc(CN2CCCC2)cc1` [Example 43] were, in that order, 0.001 to 1 µM and > 100 µM.
`COCCOc1ncc2[nH]c(=O)n(Cc3ccc(CN4CCCC4)cc3)c2n1` [Example 1, 2-(2-methoxyethoxy)-9-(4-(pyrrolidin-1-ylmethyl)benzyl)-7,9-dihydro-8H-purin-8-one]: the EC50 on hTLR7 is 1 to 10 µM; at hTLR8 it was > 100 µM.
Take `COCCOc1ncc2[nH]c(=O)n(Cc3ccc([C@@H](C)N4CCCC4)cc3)c2n1` [Example 42, (R)-2-(2-methoxyethoxy)-9-(4-(1-(pyrrolidin-1-yl)ethyl)benzyl)-7,9-dihydro-8H-purin-8-one]: the results for the EC50 at hTLR7 and at hTLR8 were 0.001 to 1 µM and > 100 µM, respectively.
The like results for `COCCOc1ncc2[nH]c(=O)n(Cc3ccc(CN4CC5CC(C5)C4)cc3)c2n1` [Example 52, 9-(4-((3-azabicyclo[3.1.1]heptan-3-yl)methyl)benzyl)-2-(2-methoxyethoxy)-7,9-dihydro-8H-purin-8-one] were, in that order, 1 to 10 µM and > 100 µM.
The like results for `COCCOc1ncc2[nH]c(=O)n(Cc3ccc(CN4CCC(F)(F)C4)cc3)c2n1` [Example 54, 9-(4-((3,3-difluoropyrrolidin-1-yl)methyl)benzyl)-2-(2-methoxyethoxy)-7,9-dihydro-8H-purin-8-one] were, in that order, 10 to 100 µM and > 100 µM.
Taken in the same sequence, the figures for `O=c1[nH]c2cnc(OCC3CCCO3)nc2n1Cc1ccc(CN2CCCC2)cc1` (centres unmarked) [Example 46, 9-(4-(pyrrolidin-1-ylmethyl)benzyl)-2-((tetrahydrofuran-2-yl)methoxy)-7,9-dihydro-8H-purin-8-one] were 1 to 10 µM and > 100 µM.
In the case of `COCCOc1ncc2[nH]c(=O)n(Cc3ccc(CN4CCC[C@H]4C(=O)OC)cc3)c2n1` [Example 8, methyl (4-((2-(2-methoxyethoxy)-8-oxo-7,8-dihydro-9H-purin-9-yl)methyl)benzyl)-L-pyrrolidine-2-carboxylate], the EC50 on hTLR7 was 10 to 100 µM; at hTLR8 it was > 100 µM.
As for `COCCOc1ncc2[nH]c(=O)n(Cc3cccc(C(C)N4CCCC4)c3)c2n1` (centres unmarked) [Example 26, 2-(2-methoxyethoxy)-9-(3-(1-(pyrrolidin-1-yl)ethyl)benzyl)-7,9-dihydro-8H-purin-8-one], the half-maximal effective concentration (EC50) is 10 to 100 µM on hTLR7 and > 100 µM on hTLR8.
